Assay results published in patent publication US20240114902A1, “COMPOSITIONS AND METHODS FOR DETERRING OVIPOSITION BY FRUIT FLIES” (The United States of America, as represented by The …, priority 2022, published 2024).

Experiments:
[1] = system: Zeugodacus cucurbitae; assay: Z. cucurbitae two-choice oviposition bioassay on pumpkin juice-infused agar; assay type: in vivo; set-up: key to Behavioral activity (Z. cucurbitae oviposition group): Negative: “negative” (i.e., oviposition reduced); Neutral: “neutral” (i.e., no effect on oviposition); Positive: “positive” (i.e., oviposition increased); conditions: for Behavioral activity (Z. cucurbitae oviposition group): individual CFFA component; for Z. cucurbitae oviposition reduction vs control agar: individual compound, 20 mg dose
Experimental: Oviposition bioassays were conducted with mated female flies, using pumpkin juice-infused agar as an oviposition substrate. A small petri dish (60×15 mm) filled with 10 mL of 1% agar mixed in pumpkin juice was used as an oviposition substrate. The agar plates were surface-treated either with 200 μL of ethanol or 200 μL of CFFA in one of 4 doses tested (20, 2, 0.2, and 0.02 mg/200 μL of ethanol), placed into a fume hood for 10 minutes for solvent evaporation prior to use in bioassays, and positioned upside-down (i.e. treated side down) on top of the 30×30×30 cm (W×L×H) screened cage 17 cm apart from each other (i.e. one each of control and CFFA treated), allowing 20 female flies (14 to 18 day-old) to oviposit on pumpkin juice agar from the bottom through the cage screen for 24 hours. Each cage was provided with a ball of water-saturated cotton, sugar, and protein hydrolysate in separate 30 mL deli cups and two oviposition substrates-one treated with CFFA diluted in ethanol and the other treated with the ethanol control. After 24 hours, Z. cucurbitae eggs in the pumpkin agar were gently separated from the agar in water and the number of eggs were individually counted. The experiment was replicated five times per treatment. CFFA was not an effective oviposition deterrent for Z. cucurbitae which is contrary to our previous work on B. dorsalis (Roh et al., 2023a). […] CFFA components were categorized into three groups “negative” (i.e., oviposition reduced), “neutral” (i.e., no effect on oviposition), and “positive” (i.e., oviposition increased) based on bioassay outcome. Using these categories, further formulations were made to determine key bioactive CFFA components in terms of oviposition deterrence on Z. cucurbitae at the equivalent ratios and concentrations of each component found in CFFA (Zhu et al. 2018). The approach involved testing the bioactivity of the negative-component blend (4c blend) for oviposition deterrence at three different doses (2, 0.2, and 0.02 mg CFFA equivalent/agar), compared with ethanol control. Further, neutral compound is added to the negative blend i.e., ‘negative+neutral’ component blend (5c blend) to identify key compounds for oviposition deterrence. The experiment was replicated five times per treatment.

[2] = system: Drosophila suzukii (SWD); assay: SWD laboratory no-choice oviposition test on raspberries; assay type: in vivo; conditions: 20 mg CFA or 20 mg CFA equivalent dose, 24 hours
Experimental: Laboratory no-choice test The oviposition deterrence of the key-component blend determined from the “Laboratory choice test 2” described above (2c blend composed of C8:0 and C10:0; Table 2) was tested using a no-choice bioassay in Geneva, New York, USA using organic raspberries purchased from a local grocery and using 30 cm×30 cm×30 cm screened cages as described above. Each cage held four raspberries on a 10 cm diameter glass petri dish lined with filter paper and assigned to one of five treatments: 1) 20 mg of CFA/200 μL hexane/raspberry, 2) C8:0 at 20 mg CFA equivalent dose/200 μL hexane/raspberry, 3) C10:0 at 20 mg CFA equivalent dose/200 μL hexane/raspberry, 4) 2c blend at 20 mg CFA equivalent dose/200 μL hexane/raspberry, or 5) 200 μL of hexane control/raspberry (see Table 2 for equivalent doses). Twenty SWD females (5 days old) were released into each cage and allowed to oviposit on raspberries over 24 hours in an environmental chamber (25° C., 55% RH, 16:8 L:D). At the end of each trial, the raspberries were inspected under a dissecting microscope and the eggs were counted. The experiment was replicated eight times per treatment.

[3] = system: non-SWD drosophilids; assay: Field test 2: sentinel raspberries in guava orchard, non-SWD drosophilids; assay type: in vivo, D. immigrans, D. simulans, D. melanogaster; conditions: 20 mg CFA or equivalent dose/raspberry, 2 days
Experimental: Field test 2 The oviposition deterrence of the 2c key-component blend and its two individual components against SWD and non-SWD drosophilids was tested under field conditions. This experiment was conducted in a guava orchard (19° 36′33.6″N, 155° 04′ 12.6″W) located near Hilo, Hawaii. To monitor oviposition, four sentinel organic raspberries purchased from a local grocery were placed (receptacles stuffed with cotton) inside a deli cup (600 mL; Placon, Madison, Wisconsin, USA). Each cup had nine 1 cm diameter holes spaced 3 cm apart along the cup's circumference and 8.5 cm from the bottom, which allowed the drosophilids to enter the cup. The four raspberries in each cup were surface-treated with one of five treatments: 1) 2c blend at 20 mg CFA equivalent/200 μL hexane/raspberry, 2) C8:0 at 20 mg CFA equivalent/200 μL hexane/raspberry, 3) C10:0 at 20 mg CFA equivalent/200 μL hexane/raspberry, 4) CFA at 20 mg/200 μL hexane/raspberry, or 5) 200 μL of hexane control/raspberry. The deli-cup traps were hung in guava trees 1.5 m from the ground with at least 10 m spacing between adjacent traps. […] Raspberries were removed from the traps, placed in rearing cups (600 mL deli cup with organdy cap), held in environmental chamber (22.1±1.9° C., 71.7±3.1% RH, 16:8 L:D), and monitored over a 2-week period. All emerged adults were counted and identified as SWD or non-SWD drosophilids. […]

| Compound | effect on Z. cucurbitae oviposition ([1]; 2 mg dose) | Behavioral activity (Z. cucurbitae oviposition group) [1] | Z. cucurbitae oviposition reduction vs control agar [1] [%] | effect on SWD oviposition vs solvent control [2] | effect on oviposition from resident (non-SWD) drosophilids [3] | effect on Z. cucurbitae oviposition ([1]; 0.02 mg dose) | effect on Z. cucurbitae oviposition ([1]; 0.2 mg dose) |
| --- | --- | --- | --- | --- | --- | --- | --- |
| CCCCCCCCCC(=O)O [C10:0, capric acid] | either lost oviposition deterrence or increased oviposition | Negative | 74 | significantly reduced SWD oviposition | not effective | – | – |
| CCCCCCCC(=O)O [C8:0, caprylic acid] | maintained oviposition deterrence | Negative | 100 | significantly reduced SWD oviposition | not effective | not | maintained oviposition deterrence |
